From US12485107B2, “Methods for the prevention or treatment of cytokine storm” (Beth Israel Deaconess Medical Center, Inc., priority 2019, dated 2025)
“Also recorded” adds a separate entry of the source.

How the values were obtained:
[1] = system: ID8 murine ovarian tumor cells; test: Annexin V/propidium iodide flow cytometry of chemotherapy-treated ID8 cells; format: cell-based; conditions: annexin V/PI; cisplatin 30 μM 48 hours, carboplatin 100 μM 72 hours, paclitaxel 1 μM 48 hours
Description: Chemotherapy-generated murine (ID8) and human (OVCAR5) ovarian tumor cell debris were prepared by re-feeding 70% confluent T150 flasks with complete medium plus 1 μM paclitaxel (Cayman Chemical, Ann Arbor, MI) or 100 μM carboplatin (Sigma Aldrich, Natick, MA) and incubating for 48 or 72 hours, respectively, at 37° C. Cisplatin-generated ID8 debris was prepared by re-feeding 70% confluent T150 flasks with complete medium plus 30 μM cisplatin (Sigma Aldrich, Natick, MA) and incubating for 48 hours at 37° C. The resulting floating population (e.g., dead cells or “debris”) was collected, counted via hemocytometer, and pelleted. The dead cells were resuspended with phosphate-buffered saline (PBS), pelleted, and resuspended again at the desired concentration in PBS.
Murine (ID8) or human (OVCAR5) ovarian tumor cells were treated with vehicle or a chemotherapeutic agent (e.g., cisplatin, carboplatin, or paclitaxel) as described. B/CMBA.Ov murine ovarian epithelial cells were treated with vehicle or PTUPB (1 or 5 μM) for 24 hours. The floating population (e.g., dead cells or “debris”) was collected, and the remaining adhered cells were trypsinized and combined with the dead cells. RAW264.7 murine macrophages were treated with vehicle or PTUPB (5 μM) for 24 hours. The floating population was collected and the remaining adhered cells were detached using a cell scraper (Corning Inc., Corning, NY) and combined with the dead cells. Cells were counted via hemocytometer, pelleted, and resuspended in PBS at 1×10^6 cells/mL. Next, 2×10^5 cells were stained with annexin V and propidium iodide (PI) according to FITC Annexin V/Dead Cell Apoptosis Kit protocol (Life Technologies, Carlsbad, CA). Staining was assessed using the BD LSR Fortessa (BD Biosciences, San Jose, CA) at the Dana-Farber Cancer Institute Jimmy Fund Flow Cytometry Core, and analyzed using FlowJo software (Tree Star Inc., Ashland, OR). Experiments were performed three times with similar results.

[2] = system: RAW264.7 murine macrophages; format: cell-based; conditions: 5 μM, 2 hours pre-treatment

Structure (SMILES)	cell death in ID8 ovarian cells [1]	cytokine storm released by macrophages stimulated with aflatoxin B1-generated Hepa 1-6 debris [2]
N.N.[Cl][Pt][Cl] [Cisplatin]	67%	
COc1ccc(-n2nc(CCCNC(=O)Nc3ccc(C(F)(F)F)cc3)cc2-c2ccccc2)cc1 [Ome-21i, 1-(3-(1-(4-methoxyphenyl)-5-phenyl-1H-pyrazol-3-yl)propyl)-3-(4-(trifluoromethyl)phenyl)urea]		shows potency in down-regulating; also recorded: inhibited
N.N.O=C([O-])C1(C(=O)[O-])CCC1.[Pt+2] [carboplatin]	78%	
CC(=O)O[C@H]1C(=O)[C@@]2(C)[C@H]([C@H](OC(=O)c3ccccc3)[C@]3(O)C[C@H](OC(=O)[C@H](O)[C@@H](NC(=O)c4ccccc4)c4ccccc4)C(C)=C1C3(C)C)[C@]1(OC(C)=O)CO[C@@H]1C[C@@H]2O [paclitaxel]	56%	
